Measurements published in patent US20220135567A1, “TYK2 PSEUDOKINASE LIGANDS” (Ventyx Biosciences, Inc., priority 2019, published 2022).

These molecules were tested on IFN-a/Jak1Tyk2 (assay: Co-stimulation assay in lysed whole blood: IFNa (JAK1/TYK2) stimulated STAT1 phosphorylation). Details: 20 min, lysed human whole blood, IFNa 100 ng/mL + GM-CSF 10 ng/mL, pSTAT1 by flow cytometry.
Assay type: cell-based
Experimental: Dilute RBC lysis buffer to 1× in distilled water. Add 2 mL blood to 38 mL of 1×RBC-lysis buffer. Incubate for 15 mins at RT, in dark. Spin at 300 g, 5 mins, to collect the pellet. Re-lyse if necessary. Re-suspend pellet in 5 mL of cRPMI.
Aliquot 80 μL of lysed human blood in to wells of 96 deep-well plate. Add 10 μl of (10× conc.) of different concentrations of compounds to all wells except controls (unstained and unstimulated) and mix it with the help of 100 uL multichannel. Add 10 uL of RPMI media in controls. For dilution of compounds and dilution range please refer Appendix. Incubate on water bath or CO2 incubator for 1 hour at 37° C. Add 10 μl of (10× conc.) of cytokine mix (GM-CSF and IFNa) (final conc. 10 ng/mL of GM-CSF and 100 ng/mL of IFNa) to each well except unstimulated and unstained controls and incubate further for 20 minutes on water bath at 37° C.
Add 900 μL of prewarmed 1× Fix/Lyse solution (Appendix) and mix it properly using 1000 μl multichannel, incubate further on water bath at 37° C. for 10 minutes (which includes time of addition). Centrifuge at 800×g for 5 minutes at 40° C.; remove 900 uL of supernatant and add 900 μL of 1×PBS. Centrifuge at 800×g for 5 minutes at 40° C., remove 900 μL of supernatant. Wash one more time with 900 μL of PBS (optional) and resuspend pellets in 100 uL of PBS.
Disrupt the pellet by gentle tapping and resuspend in 1000 μL of BD Phosflow Perm Buffer III and incubate plate on ice for 30 minutes. Centrifuge plate at 800×g for 5 minutes at 40° C. Wash two more times with 1000 μL of BD Pharmingen Stain Buffer.
Disrupt the pellet by gentle tapping. Resuspend pellets in 100 uL of Stain Buffer and add 5 μL of pSTAT5_AF488 Ab and 5 uL of pSTAT1_PE in all wells except unstained control and mix properly using 200 μl multichannel, incubate overnight at […]. Add 900 μL of wash buffer and centrifuge at 1800 rpm for 3 minutes at […]. Wash one more time with 1000 μL of BD Pharmingen Stain Buffer. Finally resuspend the pellet in 300 uL of BD Pharmingen Stain Buffer. Transfer the cells to 96-well v-bottom plate and acquire the cells in Beckman Coulter CytExpert. Acquiring cells in Flow Cytometer: Keep the threshold value to 250 and cell concentration should not exceed 100-500 cells/μL. Acquire at least 5,000-10,000 cells.
Cytokine dilution: 1) GM-CSF Stock at 100 ug/mL. Prepare an intermediate dilution of 1 ug/mL by adding 2 uL of stock into 198 uL of cRPMI. Further dilute to 100 ng/mL by adding 100 uL of the intermediate stock to 900 uL of cRPMI. 2) IFNa Stock at 200 ug/mL. Dilute IFNa stock 1:200 by adding 5 uL of stock into the 1000 uL of 100 ng/mL GM-CSF working stock as above to give a combined working stock of 1000 ng/mL of IFNa and 100 ng/mL GM-CSF (10×). Keep it on ice until used.
Lyse/Fix buffer preparation: Dilute 5× Lyse/Fix buffer to 1× using MQ water and keep at 37° C. until used.
BD Phosflow perm buffer III: Keep on ice/fridge.

Structure (SMILES) | IC50 [nM]
CNc1cc(Nc2c(F)c(F)cc(F)c2F)nc2c(C(=O)NC3CC3)cnn12 [Compound 17, N-cyclopropyl-7-(methylamino)-5-((2,3,5,6-tetrafluorophenyl)amino)pyrazolo[1,5-a]pyrimidine-3-carboxamide] | < 100
CNc1cc(Nc2ccccc2OC)nc2c(C(=O)NCC(C)(C)CO)cnn12 [Compound 22, N-(3-hydroxy-2,2-dimethylpropyl)-5-((2-methoxyphenyl)amino)-7-(methylamino)pyrazolo[1,5-a]pyrimidine-3-carboxamide] | < 100
CNc1cc(Nc2cc(F)cc(F)c2OC)nc2c(C(=O)NCC(C)(C)CO)cnn12 [Compound 23, 5-((3,5-difluoro-2-methoxyphenyl)amino)-N-(3-hydroxy-2,2-dimethylpropyl)-7-(methylamino)pyrazolo[1,5-a]pyrimidine-3-carboxamide] | < 100
CNc1cc(Nc2c(F)c(F)cc(F)c2F)nc2c(C(=O)NCC(C)(C)CO)cnn12 [Compound 24, N-(3-hydroxy-2,2-dimethylpropyl)-7-(methylamino)-5-((2,3,5,6-tetrafluorophenyl)amino)pyrazolo[1,5-a]pyrimidine-3-carboxamide] | < 100
CNc1cc(Nc2cccc3c2OCCO3)nc2c(C(=O)NCC(C)(C)CO)cnn12 [Compound 25, 5-((2,3-dihydrobenzo[b][1,4]dioxin-5-yl)amino)-N-(3-hydroxy-2,2-dimethylpropyl)-7-(methylamino)pyrazolo[1,5-a]pyrimidine-3-carboxamide] | < 100
CNc1cc(Nc2cc(F)cc(F)c2OC)nc2c(C(=O)NCC(C)(O)CO)cnn12 (centres unmarked) [Compound 26, 5-((3,5-difluoro-2-methoxyphenyl)amino)-N-(2,3-dihydroxy-2-methylpropyl)-7-(methylamino)pyrazolo[1,5-a]pyrimidine-3-carboxamide] | < 100
CNc1cc(Nc2ccc3c(c2)OCCO3)nc2c(C(=O)NC3CC3)cnn12 [Compound 27, N-cyclopropyl-5-((2,3-dihydrobenzo [b][1,4]dioxin-6-yl)amino)-7-(methylamino)pyrazolo[1,5-a]pyrimidine-3-carboxamide] | < 100
CNc1cc(Nc2cn(C)nc2C(=O)Nc2ccc(N(C)C)cc2)nc2c(C(=O)NC3CC3)cnn12 [Compound 41, N-cyclopropyl-5-((3-((4-(dimethylamino)phenyl)carbamoyl)-1-methyl-1H-pyrazol-4-yl)amino)-7-(methylamino)pyrazolo[1,5-a]pyrimidine-3-carboxamide] | < 100
CCOC(=O)c1nn(C)cc1Nc1cc(NC)n2ncc(C(=O)NC3CC3)c2n1 [Compound 42, ethyl 4-((3-(cyclopropylcarbamoyl)-7-(methylamino)pyrazolo[1,5-a]pyrimidin-5-yl)amino)-1-methyl-1H-pyrazole-3-carboxylate] | 100 to 1000

Second part, the molecule after the results:

IC50 [nM] | Structure (SMILES)
< 100 | CNc1cc(Nc2ccccc2OC)nc2c(C(=O)NC3CC3)cnn12 [Compound 16, N-cyclopropyl-5-((2-methoxyphenyl)amino)-7-(methylamino)pyrazolo[1,5-a]pyrimidine-3-carboxamide]
< 100 | CNc1cc(Nc2cccc3c2OCCO3)nc2c(C(=O)NC3CC3)cnn12 [Compound 20, N-cyclopropyl-5-((2,3-dihydrobenzo[b][1,4]dioxin-5-yl)amino)-7-(methylamino)pyrazolo[1,5-a]pyrimidine-3-carboxamide]
100 to 1000 | CNc1cc(Nc2ccccc2C(=O)OC)nc2c(C(=O)NC3CC3)cnn12 [Compound 28, methyl 2-((3-(cyclopropylcarbamoyl)-7-(methylamino)pyrazolo[1,5-a]pyrimidin-5-yl)amino)benzoate]
100 to 1000 | CNc1cc(Nc2cccc(C(=O)OC)c2)nc2c(C(=O)NC3CC3)cnn12 [Compound 29, methyl 3-((3-(cyclopropylcarbamoyl)-7-(methylamino)pyrazolo[1,5-a]pyrimidin-5-yl)amino)benzoate]
> 300 | CNc1cc(Nc2cccnc2C)nc2c(C(=O)NC3CC3)cnn12 [Compound 31, N-cyclopropyl-7-(methylamino)-5-((2-methylpyridin-3-yl)amino)pyrazolo[1,5-a]pyrimidine-3-carboxamide]
100 to 1000 | CNc1cc(Nc2cccn(-c3cc(C)n(C)n3)c2=O)nc2c(C(=O)NC3CC3)cnn12 [Compound 32, N-cyclopropyl-5-((1-(1,5-dimethyl-1H-pyrazol-3-yl)-2-oxo-1,2-dihydropyridin-3-yl)amino)-7-(methylamino)pyrazolo[1,5-a]pyrimidine-3-carboxamide]
< 100 | CNc1cc(Nc2cccn(-c3ccccn3)c2=O)nc2c(C(=O)NC3CC3)cnn12 [Compound 33, N-cyclopropyl-7-(methylamino)-5-((2-oxo-2H-[1,2′-bipyridin]-3-yl)amino)pyrazolo[1,5-a]pyrimidine-3-carboxamide]
> 300 | CNc1cc(Nc2ccccc2-n2cccn2)nc2c(C(=O)NC3CC3)cnn12 [Compound 34, 5-((2-(1H-pyrazol-1-yl)phenyl)amino)-N-cyclopropyl-7-(methylamino)pyrazolo[1,5-a]pyrimidine-3-carboxamide]
> 300 | CNc1cc(Nc2cscc2C(=O)O)nc2c(C(=O)NC3CC3)cnn12 [Compound 36, 4-((3-(cyclopropylcarbamoyl)-7-(methylamino)pyrazolo[1,5-a]pyrimidin-5-yl)amino)thiophene-3-carboxylic acid]
> 300 | CCOC(=O)c1cscc1Nc1cc(NC)n2ncc(C(=O)NC3CC3)c2n1 [Compound 37, ethyl 4-((3-(cyclopropylcarbamoyl)-7-(methylamino)pyrazolo[1,5-a]pyrimidin-5-yl)amino)thiophene-3-carboxylate]
> 300 | CCOC(=O)c1nscc1Nc1cc(NC)n2ncc(C(=O)NC3CC3)c2n1 [Compound 38, ethyl 4-((3-(cyclopropylcarbamoyl)-7-(methylamino)pyrazolo[1,5-a]pyrimidin-5-yl)amino)isothiazole-3-carboxylate]
> 300 | CNc1cc(Nc2csnc2C(=O)OC)nc2c(C(=O)NC3CC3)cnn12 [Compound 39, methyl 4-((3-(cyclopropylcarbamoyl)-7-(methylamino)pyrazolo[1,5-a]pyrimidin-5-yl)amino)isothiazole-3-carboxylate]
< 100 | CNc1cc(Nc2cccn(-c3ccc(OC)nn3)c2=O)nc2c(C(=O)NC3CC3)cnn12 [Compound 40, N-cyclopropyl-5-((1-(6-methoxypyridazin-3-yl)-2-oxo-1,2-dihydropyridin-3-yl)amino)-7-(methylamino)pyrazolo[1,5-a]pyrimidine-3-carboxamide]

Same assay, conditions: lysed human whole blood; IFNa 100 ng/mL + GM-CSF 10 ng/mL, 20 minutes; pSTAT1 by flow cytometry

IC50 [nM] | Structure (SMILES)
1000 to 10000 | CNC(=O)c1cnn2c(NC)cc(Nc3cc(C)cc(C)c3)nc12 [Compound 9, 5-((3,5-dimethylphenyl)amino)-N-methyl-7-(methylamino)pyrazole [1,5-a]pyrimidine-3-carboxamide]
< 100 | CNc1cc(Nc2cc(C)cc(C)c2)nc2c(C(N)=O)cnn12 [Compound 10, 5-((3,5-dimethylphenyl)amino)-7-(methylamino)pyrazole[1,5-a]pyrimidine-3-carboxamide]
< 100 | CNc1cc(Nc2cc(F)cc(F)c2OC)nc2c(C(N)=O)cnn12 [Compound 13, 5-((3,5-difluoro-2-methoxyphenyl)amino)-7-(methylamino)pyrazole[1,5-a]pyrimidine-3-carboxamide]
< 100 | CNc1cc(Nc2cc(F)cc(F)c2OC)nc2c(C(=O)NC3CC3)cnn12 [Compound 19]
